Test [1] has as its target caspase-2 (C2) (Homo sapiens, UniProt P42575). The test can be described thus: Caspase-2 biochemical activity assay with fluorogenic substrate. The source says: Error bars represent the standard deviation of thre replicate measurements. […] Activity measured by the cleavage of aminofluorocoumarin-labeled peptides (see the Supporting Information for sequences). C = caspase.

Test [2] concerns the target caspase-6 (Homo sapiens, UniProt P55212). Nature of the test: biochemical.
Description: Caspase-6 enzyme assay: The in vitro enzymatic caspase-6 assays utilize synthetic tetrapeptide
substrates labeled with either Rhodamine110 (R110) or 7-Amino-4-(trifluoromethyl)coumarin (AFC)
at the P1 aspartic acid (Asp) residue, as described.3 Briefly, assays were performed in 384-well plates
consisting of caspase-6, VEID-Rh110 or Ac-VEID-AFC and indicated concentration of inhibitor or
DMSO in assay buffer (50 mM HEPES pH 8.0, 100 mM NaCl, 1 mM EDTA, and 500 M ME).
All inhibitors were serially diluted in 100% DMSO prior to dilution in assay buffer and transfer to
assay plate, for a final DMSO concentration of 1%. Compound and protein were preincubated for 15 minutes prior to addition of substrate. The reaction plate was incubated at room temperature for 30
minutes and then read on an Envision (Perkin Elmer) fluorescent plate reader at excitation/emission
wavelengths of 485/535 nm (R110) or 395/495 nm (AFC). Data were processed to generate dose-
response curves and analyzed using a nonlinear curve fit with variable slope in Prism software
Test [3] deals with proteins of HEK293T cells transiently overexpressing caspase-6 (Homo sapiens, UniProt P49588). The format is cell-based. Particulars: Probe; protein AARS P49588.
proteins of HEK293T cells transiently overexpressing caspase-6 (Homo sapiens, UniProt P49588), sequence (P49588 whole entry): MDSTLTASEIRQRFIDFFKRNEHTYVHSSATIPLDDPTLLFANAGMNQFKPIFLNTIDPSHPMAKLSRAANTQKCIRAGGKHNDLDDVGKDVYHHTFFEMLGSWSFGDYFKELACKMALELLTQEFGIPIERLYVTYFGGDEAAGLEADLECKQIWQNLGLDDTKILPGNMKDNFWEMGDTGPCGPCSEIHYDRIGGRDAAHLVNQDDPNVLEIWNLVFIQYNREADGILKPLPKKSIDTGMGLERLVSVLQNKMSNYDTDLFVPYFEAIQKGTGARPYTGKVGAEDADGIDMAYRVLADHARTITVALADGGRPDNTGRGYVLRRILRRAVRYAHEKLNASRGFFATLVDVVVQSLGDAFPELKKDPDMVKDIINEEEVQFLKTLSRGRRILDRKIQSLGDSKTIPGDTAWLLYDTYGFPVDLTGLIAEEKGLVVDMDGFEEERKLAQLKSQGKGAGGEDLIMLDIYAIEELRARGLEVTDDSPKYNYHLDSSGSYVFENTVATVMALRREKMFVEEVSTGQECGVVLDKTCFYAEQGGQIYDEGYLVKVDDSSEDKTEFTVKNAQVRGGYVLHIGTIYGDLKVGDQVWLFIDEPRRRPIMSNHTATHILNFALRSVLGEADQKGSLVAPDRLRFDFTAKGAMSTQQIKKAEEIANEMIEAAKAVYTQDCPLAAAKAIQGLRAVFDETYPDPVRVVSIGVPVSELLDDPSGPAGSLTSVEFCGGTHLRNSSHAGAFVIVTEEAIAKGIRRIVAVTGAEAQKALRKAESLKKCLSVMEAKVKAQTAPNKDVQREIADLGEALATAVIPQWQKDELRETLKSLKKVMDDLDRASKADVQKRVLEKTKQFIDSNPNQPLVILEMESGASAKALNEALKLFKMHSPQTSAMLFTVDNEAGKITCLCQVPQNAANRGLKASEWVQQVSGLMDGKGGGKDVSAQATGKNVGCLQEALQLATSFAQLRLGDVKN
Test [4] concerns the target proteins of HEK293T cells transiently overexpressing caspase-6 (Homo sapiens, UniProt Q9H307). It is filed as cell-based. Particulars: exp_ref Probe; protein PNN (Q9H307); analysis C6.
Test [5] deals with proteins of HEK293T cells transiently overexpressing caspase-6 (Homo sapiens, UniProt P24752). The format is cell-based. To be noted: Probe; protein ACAT1 P24752.
proteins of HEK293T cells transiently overexpressing caspase-6 (Homo sapiens, UniProt P24752), sequence (P24752 34-427): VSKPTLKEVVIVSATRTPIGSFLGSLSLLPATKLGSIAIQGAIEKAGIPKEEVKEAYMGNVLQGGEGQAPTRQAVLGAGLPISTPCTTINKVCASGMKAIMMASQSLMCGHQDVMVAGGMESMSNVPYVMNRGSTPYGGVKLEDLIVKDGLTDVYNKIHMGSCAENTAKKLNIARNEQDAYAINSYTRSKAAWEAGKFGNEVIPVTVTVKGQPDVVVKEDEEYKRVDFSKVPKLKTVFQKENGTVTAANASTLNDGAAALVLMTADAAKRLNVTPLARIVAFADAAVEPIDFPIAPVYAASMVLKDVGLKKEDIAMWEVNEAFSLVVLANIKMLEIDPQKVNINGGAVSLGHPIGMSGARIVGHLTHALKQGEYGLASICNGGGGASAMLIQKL
The target of test [6] is T1, proteins of HEK293T cells transiently overexpressing caspase-6 (Homo sapiens, UniProt P45880).
T1 sequence (P45880 1-294): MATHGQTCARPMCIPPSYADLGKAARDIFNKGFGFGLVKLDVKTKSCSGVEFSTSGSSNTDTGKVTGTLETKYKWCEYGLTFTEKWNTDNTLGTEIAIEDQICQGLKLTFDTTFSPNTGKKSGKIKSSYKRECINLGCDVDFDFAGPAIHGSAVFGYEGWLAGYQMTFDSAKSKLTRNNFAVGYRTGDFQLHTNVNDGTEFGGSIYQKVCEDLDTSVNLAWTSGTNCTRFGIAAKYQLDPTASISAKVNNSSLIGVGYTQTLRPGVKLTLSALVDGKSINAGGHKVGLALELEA
The format is cell-based. Particulars: protein VDAC2 (P45880).

Test [7] addresses proteins of HEK293T cells transiently overexpressing caspase-6 (Homo sapiens, UniProt P08133). The format is cell-based. Particulars: exp_ref Probe; protein ANXA6 (P08133); analysis C6.
Test [8] has as its target T2, proteins of HEK293T cells transiently overexpressing caspase-6 (Homo sapiens, UniProt P04075).
T2 sequence (P04075 1-364): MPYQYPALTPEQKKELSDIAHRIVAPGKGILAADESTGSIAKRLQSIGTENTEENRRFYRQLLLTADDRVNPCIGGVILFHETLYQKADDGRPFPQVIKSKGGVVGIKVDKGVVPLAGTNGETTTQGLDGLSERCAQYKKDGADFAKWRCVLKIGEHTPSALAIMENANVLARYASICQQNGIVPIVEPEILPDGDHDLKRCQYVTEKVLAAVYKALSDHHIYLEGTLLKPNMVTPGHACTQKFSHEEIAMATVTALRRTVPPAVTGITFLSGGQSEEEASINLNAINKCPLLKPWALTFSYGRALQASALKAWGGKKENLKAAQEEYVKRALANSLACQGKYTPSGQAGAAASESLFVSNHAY
It is filed as cell-based. Particulars: protein ALDOA (P04075).

Test [9] addresses proteins of HEK293T cells transiently overexpressing caspase-6 (Homo sapiens, UniProt P00558). It is filed as cell-based. Particulars: exp_ref Probe; protein PGK1 (P00558); analysis C6.
Test [10] concerns the target proteins of HEK293T cells transiently overexpressing caspase-6 (Homo sapiens, UniProt P13010). It is filed as cell-based. Particulars: protein XRCC5 (P13010).
For test [11], the target named is proteins of HEK293T cells transiently overexpressing caspase-6 (Homo sapiens, UniProt Q16531). It is filed as cell-based. To be noted: Probe; protein DDB1 Q16531.
proteins of HEK293T cells transiently overexpressing caspase-6 (Homo sapiens, UniProt Q16531), sequence (Q16531 whole entry): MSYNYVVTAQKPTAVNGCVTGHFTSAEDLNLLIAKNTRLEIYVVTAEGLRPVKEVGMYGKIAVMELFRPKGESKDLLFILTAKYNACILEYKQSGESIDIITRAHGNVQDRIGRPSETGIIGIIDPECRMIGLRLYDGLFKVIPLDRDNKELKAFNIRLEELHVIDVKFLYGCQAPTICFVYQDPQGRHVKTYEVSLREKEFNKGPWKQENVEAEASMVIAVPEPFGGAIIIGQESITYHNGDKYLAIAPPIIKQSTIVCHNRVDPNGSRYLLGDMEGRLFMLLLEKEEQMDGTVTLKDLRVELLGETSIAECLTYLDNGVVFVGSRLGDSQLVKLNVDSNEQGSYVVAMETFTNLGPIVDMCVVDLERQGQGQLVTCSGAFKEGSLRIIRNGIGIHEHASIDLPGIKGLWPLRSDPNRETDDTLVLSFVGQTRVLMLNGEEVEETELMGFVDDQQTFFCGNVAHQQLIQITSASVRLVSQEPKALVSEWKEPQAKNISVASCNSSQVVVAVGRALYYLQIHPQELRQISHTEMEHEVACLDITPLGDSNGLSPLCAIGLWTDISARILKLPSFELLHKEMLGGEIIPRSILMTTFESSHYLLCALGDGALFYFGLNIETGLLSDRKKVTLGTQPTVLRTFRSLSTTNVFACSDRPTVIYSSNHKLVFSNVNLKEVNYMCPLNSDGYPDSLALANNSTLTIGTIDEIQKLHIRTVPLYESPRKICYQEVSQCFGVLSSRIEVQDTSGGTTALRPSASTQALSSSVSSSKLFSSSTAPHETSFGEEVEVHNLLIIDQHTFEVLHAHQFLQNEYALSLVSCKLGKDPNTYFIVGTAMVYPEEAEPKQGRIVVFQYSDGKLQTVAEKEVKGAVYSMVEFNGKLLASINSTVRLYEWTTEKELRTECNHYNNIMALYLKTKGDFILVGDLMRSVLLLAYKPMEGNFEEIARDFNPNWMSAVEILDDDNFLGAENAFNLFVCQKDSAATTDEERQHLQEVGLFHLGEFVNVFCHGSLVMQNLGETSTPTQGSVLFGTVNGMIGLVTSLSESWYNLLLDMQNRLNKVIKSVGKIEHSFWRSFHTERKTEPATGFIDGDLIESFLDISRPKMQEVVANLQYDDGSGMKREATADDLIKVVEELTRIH
Test [12] addresses proteins of HEK293T cells transiently overexpressing caspase-6 (Homo sapiens, UniProt P11142). It is filed as cell-based. Particulars: protein HSPA8 (P11142).
In test [13] the target is proteins of HEK293T cells transiently overexpressing caspase-6 (Homo sapiens, UniProt Q16881). The format is cell-based. To be noted: exp_ref Probe; protein TXNRD1 (Q16881); analysis C6.
proteins of HEK293T cells transiently overexpressing caspase-6 (Homo sapiens, UniProt Q16881), sequence (Q16881 whole entry): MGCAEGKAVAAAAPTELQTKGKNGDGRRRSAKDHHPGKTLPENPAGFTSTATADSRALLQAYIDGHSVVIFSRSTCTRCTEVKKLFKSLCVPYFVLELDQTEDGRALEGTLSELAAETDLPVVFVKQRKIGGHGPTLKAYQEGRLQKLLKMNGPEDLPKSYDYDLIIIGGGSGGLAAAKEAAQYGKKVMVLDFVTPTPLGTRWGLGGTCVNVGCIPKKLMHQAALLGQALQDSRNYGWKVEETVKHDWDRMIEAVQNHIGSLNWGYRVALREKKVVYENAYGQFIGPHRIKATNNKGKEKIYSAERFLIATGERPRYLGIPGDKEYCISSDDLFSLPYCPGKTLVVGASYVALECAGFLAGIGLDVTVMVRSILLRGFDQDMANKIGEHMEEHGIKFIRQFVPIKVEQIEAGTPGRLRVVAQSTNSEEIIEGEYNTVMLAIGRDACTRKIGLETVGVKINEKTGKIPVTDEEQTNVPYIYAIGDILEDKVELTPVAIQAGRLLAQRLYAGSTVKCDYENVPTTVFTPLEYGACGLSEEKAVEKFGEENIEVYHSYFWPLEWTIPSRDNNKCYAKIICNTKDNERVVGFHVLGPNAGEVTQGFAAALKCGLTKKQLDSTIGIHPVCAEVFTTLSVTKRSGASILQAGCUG
In test [14] the target is proteins of HEK293T cells transiently overexpressing caspase-6 (Homo sapiens, UniProt Q02790). It is filed as cell-based. Particulars: exp_ref Probe; protein FKBP4 (Q02790); analysis C6.
Test [15] has as its target proteins of HEK293T cells transiently overexpressing caspase-6 (Homo sapiens, UniProt P35232). The format is cell-based. To be noted: Probe; protein PHB P35232.
Test [16] deals with proteins of HEK293T cells transiently overexpressing caspase-6 (Homo sapiens, UniProt Q9BZZ5). It is filed as cell-based. To be noted: exp_ref Probe; protein API5 (Q9BZZ5); analysis C6.
Test [17] concerns the target proteins of HEK293T cells transiently overexpressing caspase-6 (Homo sapiens, UniProt P62244). It is filed as cell-based. To be noted: exp_ref Probe; protein RPS15A (P62244); analysis C6.
The target in test [18] is proteins of HEK293T cells transiently overexpressing caspase-6 (Homo sapiens, UniProt Q14166). The format is cell-based. Particulars: exp_ref Probe; protein TTLL12 (Q14166); analysis C6.
In test [19] the target is proteins of HEK293T cells transiently overexpressing caspase-6 (Homo sapiens, UniProt P25205). It is filed as cell-based. To be noted: exp_ref Probe; protein MCM3 (P25205); analysis C6.
In test [20] the target is proteins of HEK293T cells transiently overexpressing caspase-6 (Homo sapiens, UniProt P18124). The format is cell-based. To be noted: Probe; protein RPL7 P18124.

Molecules are shown by their SMILES. Read-outs that look alike come from different tables or passages of the source.

proteins of HEK293T cells transiently overexpressing caspase-6 (Homo sapiens, UniProt P13010), sequence (P13010 whole entry): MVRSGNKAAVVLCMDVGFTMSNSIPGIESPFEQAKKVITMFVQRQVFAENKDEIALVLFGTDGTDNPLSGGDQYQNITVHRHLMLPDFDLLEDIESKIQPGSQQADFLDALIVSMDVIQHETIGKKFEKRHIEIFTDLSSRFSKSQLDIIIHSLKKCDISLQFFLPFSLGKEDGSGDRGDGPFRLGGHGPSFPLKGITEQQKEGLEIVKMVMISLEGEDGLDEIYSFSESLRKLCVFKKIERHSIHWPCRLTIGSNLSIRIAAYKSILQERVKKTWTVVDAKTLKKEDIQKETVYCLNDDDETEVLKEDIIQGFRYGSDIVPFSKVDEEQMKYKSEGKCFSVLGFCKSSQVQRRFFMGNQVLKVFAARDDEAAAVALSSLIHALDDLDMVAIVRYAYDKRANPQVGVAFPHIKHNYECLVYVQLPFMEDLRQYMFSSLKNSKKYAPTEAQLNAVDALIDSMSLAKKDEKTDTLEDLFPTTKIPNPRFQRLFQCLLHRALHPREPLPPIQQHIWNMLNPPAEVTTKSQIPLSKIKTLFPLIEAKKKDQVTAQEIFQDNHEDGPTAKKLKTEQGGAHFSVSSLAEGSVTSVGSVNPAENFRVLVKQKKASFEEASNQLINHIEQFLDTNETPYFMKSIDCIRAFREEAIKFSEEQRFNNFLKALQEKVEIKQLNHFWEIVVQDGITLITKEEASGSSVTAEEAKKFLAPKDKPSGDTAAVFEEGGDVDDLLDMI
proteins of HEK293T cells transiently overexpressing caspase-6 (Homo sapiens, UniProt P11142), sequence (P11142 whole entry): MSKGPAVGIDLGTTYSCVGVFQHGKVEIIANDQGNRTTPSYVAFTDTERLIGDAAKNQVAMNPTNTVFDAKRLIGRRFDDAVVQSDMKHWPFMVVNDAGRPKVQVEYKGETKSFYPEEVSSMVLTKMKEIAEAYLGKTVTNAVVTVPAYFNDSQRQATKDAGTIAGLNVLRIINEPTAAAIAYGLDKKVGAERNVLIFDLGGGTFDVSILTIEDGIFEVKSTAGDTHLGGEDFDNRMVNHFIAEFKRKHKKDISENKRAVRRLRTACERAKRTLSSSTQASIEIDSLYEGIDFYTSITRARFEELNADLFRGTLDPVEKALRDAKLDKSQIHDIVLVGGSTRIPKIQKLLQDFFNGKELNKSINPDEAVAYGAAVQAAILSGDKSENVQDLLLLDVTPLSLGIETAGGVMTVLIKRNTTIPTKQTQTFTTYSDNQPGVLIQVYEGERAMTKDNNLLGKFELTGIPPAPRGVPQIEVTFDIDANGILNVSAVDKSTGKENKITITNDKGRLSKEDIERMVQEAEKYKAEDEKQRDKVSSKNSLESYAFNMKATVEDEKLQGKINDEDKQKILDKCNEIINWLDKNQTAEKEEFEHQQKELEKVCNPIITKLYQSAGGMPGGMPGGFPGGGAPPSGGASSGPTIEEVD
proteins of HEK293T cells transiently overexpressing caspase-6 (Homo sapiens, UniProt P35232), sequence (P35232 whole entry): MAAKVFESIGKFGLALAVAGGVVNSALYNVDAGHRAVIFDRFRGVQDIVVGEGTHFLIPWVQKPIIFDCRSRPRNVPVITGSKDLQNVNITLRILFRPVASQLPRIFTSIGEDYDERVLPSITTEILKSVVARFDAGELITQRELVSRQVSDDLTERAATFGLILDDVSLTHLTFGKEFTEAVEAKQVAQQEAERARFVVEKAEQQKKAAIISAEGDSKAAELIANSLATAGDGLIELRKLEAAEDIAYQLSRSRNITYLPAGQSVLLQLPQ

Consider `C=CS(=O)(=O)N1C[C@H](C(=O)Nc2ccc(OC(F)(F)F)cc2)C[C@@H](c2ccccc2)C1` [3a], for which the “activity against C2 (in words)” value in test [1] is on record as “lack of activity”.
One may read the IC50 as the concentration at which inhibition is half-maximal. For `C#CCOc1ccc([C@@H]2C[C@@H](C(=O)Nc3ccc(OC(F)(F)F)cc3)CN(S(=O)(=O)C=C)C2)cc1` (relative stereo) [13-t], the IC50 in test [2] was found to be 48 ± 2 nM. Further, the enrich.exp.med in [3] is listed as -2.083; in [4] it was 0.5676; in test [5], -1.066; in [6] (exp_ref Probe, analysis C6), 2.234; in test [7], 0.01987; in [8] (exp_ref Probe, analysis C6), 0.8107. The enrich.exp.med in [9] is recorded as 0.1871; in test [10] (exp_ref Probe, analysis C6) it was 0.8127; in test [11], -0.5354; in test [12] (exp_ref Probe, analysis C6), 0.3873; in test [13] it was -0.009915; in test [14] it was 0.8165. Also, the enrich.exp.med is listed as -1.532 in test [15]; 0.9484 in test [16]; 0.1255 in test [17]; -0.1545 in [18]; 0.2109 in test [19]; -0.45 in test [20]. For the same compound, the enrich.exp.med.lin is recorded as 4.704 in test [6]; 4.704 in test [6] (Expt Probe, analysis C6); 1.754 in test [8]; 1.757 in [10]; 1.308 in test [12]. For the same compound, the enrich.exp.med.log2 in [6] amounted to 2.234; in test [6] (Expt Probe, analysis C6), 2.234; in [8], 0.8107; in [10] it was 0.8127; in [12], 0.3873.

For the origin of these results see PMC10176470, “Engaging a Non-catalytic Cysteine Residue Drives Potent and Selective Inhibition of Caspase-6” (Journal of the American Chemical Society, 2023).
